From US10889611B2, “Sialyltransferase inhibitors and uses thereof” (Academia Sinica, priority 2015, dated 2021)
Marks after values point to notes of the source that are not given here.

What was measured:
[1] = target: T1, α2,3(N)-sialyltransferase ST3GALIII (Rattus norvegicus, UniProt Q02734); experiment: Sialyltransferase activity assay, ST3GALIII; format: biochemical; conditions: calculated based on the concentration, of ST inhibitor used toward α2,3-O-ST3GALI, listed as 3 (FCW34)
T1 construct: purchased Calbiochem
T1 sequence (Q02734 1-374): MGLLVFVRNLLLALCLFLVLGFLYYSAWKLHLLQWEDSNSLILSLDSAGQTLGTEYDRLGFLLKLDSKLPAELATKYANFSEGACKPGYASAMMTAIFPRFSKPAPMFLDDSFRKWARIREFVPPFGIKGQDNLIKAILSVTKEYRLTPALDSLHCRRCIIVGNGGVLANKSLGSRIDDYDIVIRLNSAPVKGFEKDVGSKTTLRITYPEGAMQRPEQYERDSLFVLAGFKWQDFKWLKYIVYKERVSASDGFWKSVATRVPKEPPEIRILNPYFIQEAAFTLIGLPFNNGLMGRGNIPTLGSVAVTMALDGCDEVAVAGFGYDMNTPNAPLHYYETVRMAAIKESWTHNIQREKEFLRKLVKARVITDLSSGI
Method: The enzymes analyzed in the present study included rat ST3Gal(I), rat ST3Gal(III), and human ST6Gal(I). Rat ST3Gal(I) and rat ST3Gal(Ill), were purchased from Calbiochem®, while human ST6Gal(I) was purchased from RnDSystems.com.
(§1) Sialyltransferase inhibition assay […] was performed as follows: Sialyltransferase activity was determined by measuring the level of the end product of sialylated saccharides with reverse-phase HPLC. The assay mixtures contained the following components: 200 mM MES buffer; 100 mM NaCl; 0.5 mM EDTA; 0.01% Triton X-100; 1.4 mU ST3GALI; 2.5 mM T-antigen; 1 mM CMP-Neu5Ac and different concentration of Sialyltransferase inhibitors to a total volume of 50 μl. The assay mixture was incubated at 37° C. for 15 mins and then quenched by heating up to 101′C for 10 mins. The sialylated product was resolved by reversed-phase HPLC. Kinetic data were obtained by fitting the initial rate data to the nonlinear regression equation.
as §1, with “mU ST6GALI; 25 μM Galβ1-4GlcNAc;” for “mU ST3GALI; 2.5 mM T-antigen;”, “to 101° C.” for “to 101′C”, “product is” for “product was”, “resolved with” for “resolved by”
Effects of the present compounds on the activity of sialyltransferase, including α2,3(N)-sialyltransferase ST3GALIII, α2,6(N)-sialyltransferases ST6GALI, and α2,3(O)-sialyltransferase ST3GALI, were determined in accordance with procedures described in the “Materials and Methods” section, and results are summarized in Table 1.

[2] = target: T2, α2,3(O)-sialyltransferase ST3GALI (Rattus norvegicus, UniProt Q6H8N0); experiment: Sialyltransferase inhibition assay, ST3GALI (reverse-phase HPLC); format: biochemical; conditions: read-out: ST3GALI inhibition percentage
T2 construct: purchased Calbiochem
T2 sequence (Q6H8N0 1-340): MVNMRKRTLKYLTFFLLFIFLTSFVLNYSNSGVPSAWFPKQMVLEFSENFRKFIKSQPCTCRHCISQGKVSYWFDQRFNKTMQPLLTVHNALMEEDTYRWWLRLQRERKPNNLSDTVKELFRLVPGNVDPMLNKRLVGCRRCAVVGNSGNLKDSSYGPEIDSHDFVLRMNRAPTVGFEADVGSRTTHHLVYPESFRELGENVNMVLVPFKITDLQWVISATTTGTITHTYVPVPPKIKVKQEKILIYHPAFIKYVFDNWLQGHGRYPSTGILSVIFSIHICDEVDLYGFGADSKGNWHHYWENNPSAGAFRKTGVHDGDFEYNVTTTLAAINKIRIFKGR
Procedure, shortened: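 Rat ST3Gal(I) (1.4 mU) was incubated with 2.5 mM T-antigen and 1 mM CMP-Neu5Ac in 200 mM MES, 100 mM NaCl, 0.5 mM EDTA and 0.01% Triton X-100 with varied inhibitor, 15 min at 37 °C, then heat-quenched. Sialylated product was quantified by reverse-phase HPLC, and kinetic values came from nonlinear regression of initial rates.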

MDA-MB-231 breast cancer = experiment: Nude mice model of human MDA-MB-231 breast cancer; format: in vivo
Method: BALB/c mice (4-5 weeks old) were subcutaneously injected with 1×10^6 MDA-MB-231 cells to the mammary fat pad on day 0. Tumors were allowed to grow in the mice until the size of the tumor reached 100 mm^3, and then the animals were randomly assigned to 3 groups (n=6-8 per group): tumor (vehicle) control, 10 mg/kg the present compound (e.g., FCW34 or FCW66) treatment group. The present compound was intraperitoneally (i.p.) injected to test animals every three days. The growth and metastasis of the tumors were observed by IVIS imaging system, and the metastasized tumor tissues were collected on day 60, and measured for the volume (V) using calipers and calculated by the formula V=(L×W^2)/2, where L is the length and W is the width of tumor.
The effects of the sialyltransferase inhibitor in tumor growth and metastasis were investigated in a nude mice model of human MDA-MB-231 breast cancer established in accordance with procedures set forth in the “Materials and Methods” section. The MDA-MB-231/Luc cells (5×10^6 cells) were orthotopically injected into the mammary fat pad of nude mice. Then the mice were given FCW34 and vehicle, respectively, on day 20, and the tumor volume were evaluated by bioluminescence every 3 days using IVIS image analysis.

PANC-1 cells = experiment: SNA lectin staining of 2,6-sialylation by FACS in PANC-1 cells; format: cell-based, human; conditions: PANC-1 cells grown in fructose-containing medium, FIG. 3
Text: PANC-1 cells were first grown in glucose-containing or fructose-containing medium treated with or without the presence of the test compound (i.e., FCW34 or AL10, which was used as a positive control), then the cells were stained with SNA lectin to measure 2,6-sialylation level by FACS analysis.

C[C@H](CCC(=O)OCCOCCOCCN=[N+]=[N-])C1CC[C@H]2[C@@H]3CC[C@@H]4C[C@H](OC(=O)[C@H](CC(=O)O)Nc5ccc([N+](=O)[O-])c6nonc56)CC[C@]4(C)[C@H]3CC[C@]12C (stereo partly drawn) [Compound 3, (3S)-4-(((3R,5R,8R,9S,10S,13R,14S)-17-((R)-5-(2-(2-(2-azidoethoxy)ethoxy)ethoxy)-5-oxopentan-2-yl)-10,13-dimethylhexadecahydro-1H-cyclopenta[a]phenanthren-3-yl)oxy)-3-((7-nitrobenzo[c][1,2,5]oxadiazol-4-yl)amino)-4-oxobutanoic acid]
selectivity ratio ST3GALI/ST3GALIII ([1]; 500 μM): >287^d
selectivity ratio ST3GALI/ST3GALIII ([1]; 1 mM): (<575)^e
inhibition at 500 µM ([2]; measured at 500 μM): 0%
inhibition at 1000 µM ([2]; measured at 1 mM): 60%
growth of the cancer cells (tumors harvested on day 60) (MDA-MB-231 breast cancer; 10 mg/Kg, FIG. 2B): suppresses the growth
level of bioluminescence (tumor growth, IVIS) (MDA-MB-231 breast cancer; 10 mg/Kg/mouse/3 days, FIG. 2A): remained at a relatively low level
toxic effects (biochemistry tests of blood and body weight assessment) (MDA-MB-231 breast cancer; treated mice, data not shown): limited toxic effects
level of 2,6-sialylation (PANC-1 cells): greatly reduced
